# Columns and labels:
# Experiment in all cases: relative viability (nuclei count vs DMSO), 5 days (fraction); higher = more cells survive
# [1] = compound: C1=CC=C2C(=C1)N=C(S2)C(C#N)C3=NC(=NC=C3)NCCC4=CN=CC=C4 + N=C(N)NC(=N)NCCc1ccccc1 [Phenformin] (partner 250 µM)
# How it was run: (§1)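 After 5 days of treatment, lung cancer cells in 1536-well plates were fixed and stained in a single step (final 0.05% Triton X-100, 1% formaldehyde, 1 ug/ml Hoechst) and their nuclei counted on 4× images. Treatment had been applied by pin tool the day after seeding as one drug alone or as a fixed anchor-drug dose with five library-drug doses (not always all listed) in √10 steps. Relative viability is the nuclei count of treated wells divided by that of vehicle wells, and values are medians of duplicate plates.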
# Vandetanib + Bortezomib = compound: COc1cc2/c(=N/c3ccc(Br)cc3F)nc[nH]c2cc1OCC1CCN(C)CC1 [Vandetanib] + CC(C)C[C@H](NC(=O)[C@H](Cc1ccccc1)NC(=O)c1cnccn1)B(O)O [Bortezomib] (partner 0.002 µM)
# How it was run: as §1
# NVP-TAE684 + Alpelisib = compound: COc1cc(N2CCC(N3CCN(C)CC3)CC2)ccc1Nc1ncc(Cl)c(Nc2ccccc2S(=O)(=O)C(C)C)n1 [NVP-TAE684] + Cc1nc(NC(=O)N2CCC[C@H]2C(N)=O)sc1-c1ccnc(C(C)(C)C(F)(F)F)c1 [Alpelisib] (partner 2 µM)
# How it was run: as §1
# NVP-TAE684 + Crizotinib = compound: COc1cc(N2CCC(N3CCN(C)CC3)CC2)ccc1Nc1ncc(Cl)c(Nc2ccccc2S(=O)(=O)C(C)C)n1 [NVP-TAE684] + C[C@@H](Oc1cc(-c2cnn(C3CCNCC3)c2)cnc1N)c1c(Cl)ccc(F)c1Cl [Crizotinib] (partner 1 µM)
# How it was run: as §1
# NVP-TAE684 + Bortezomib = compound: COc1cc(N2CCC(N3CCN(C)CC3)CC2)ccc1Nc1ncc(Cl)c(Nc2ccccc2S(=O)(=O)C(C)C)n1 [NVP-TAE684] + CC(C)C[C@H](NC(=O)[C@H](Cc1ccccc1)NC(=O)c1cnccn1)B(O)O [Bortezomib] (partner 0.002 µM)
# How it was run: as §1
Cell Line,relative viability ([1]; first compound 0.005 µM),relative viability ([1]; first compound 0.01581 µM),relative viability ([1]; first compound 0.05 µM),relative viability ([1]; first compound 0.1581 µM),relative viability ([1]; first compound 0.5 µM),relative viability (Vandetanib + Bortezomib; first compound 0.02 µM),relative viability (Vandetanib + Bortezomib; first compound 0.06325 µM),relative viability (Vandetanib + Bortezomib; first compound 0.2 µM),relative viability (Vandetanib + Bortezomib; first compound 0.6325 µM),relative viability (Vandetanib + Bortezomib; first compound 2 µM),relative viability (NVP-TAE684 + Alpelisib; first compound 0.2 µM),relative viability (NVP-TAE684 + Alpelisib; first compound 0.6325 µM),relative viability (NVP-TAE684 + Alpelisib; first compound 2 µM),relative viability (NVP-TAE684 + Crizotinib; first compound 0.2 µM),relative viability (NVP-TAE684 + Crizotinib; first compound 0.6325 µM),relative viability (NVP-TAE684 + Crizotinib; first compound 2 µM),relative viability (NVP-TAE684 + Bortezomib; first compound 0.2 µM),relative viability (NVP-TAE684 + Bortezomib; first compound 0.6325 µM),relative viability (NVP-TAE684 + Bortezomib; first compound 2 µM)
RERF-LC-KJ,0.396,0.447,0.403,0.442,0.377,1.05,0.961,1.05,0.951,0.958,0.789,0.743,0.843,0.948,0.781,0.792,0.952,1.25,0.916
NCI-H1975,0.301,0.42,0.404,0.447,0.359,0.359,0.35,0.376,0.355,0.383,0.703,0.545,0.235,0.978,1.1,0.227,0.359,0.362,0.21
PC-3 [JPC-3],0.502,0.485,0.456,0.48,0.419,0.828,0.738,0.646,0.734,0.431,0.963,1.02,0.893,0.993,1,0.946,0.99,,0.731
EPLC-272H,0.225,0.243,0.275,0.286,0.311,0.983,0.764,0.892,0.995,0.909,0.799,,0.9,0.898,,0.873,1.23,,0.66

# Source: the supplement of paper PMC10307832
